From patent US8263601B2, “Deuterium substituted xanthine derivatives” (CoNCERT Pharmaceuticals, Inc., priority 2009, dated 2012)
Like-named read-outs stand apart in the source and are kept apart here. One block for each molecule: values may come before it.

Tests used:
[1] = Stability of compounds in rat whole blood (Example 35); assay type: in vitro ADME; settings: 5 μM, 37° C.; for Keto-compound (pentoxifylline or Compound 409) formed from M-1 alcohol: 2 hours, FIG. 3
Description: This study was performed to evaluate the stability of the title compounds in rat whole blood. Because the ketone (or keto-compound; either pentoxifylline or 409) and its corresponding M-1 alcohol metabolite interconvert, levels of these components were measured after either the keto-compound was added to the blood or the M-1 was added. In other words, in some tests the keto-compound was the starting test compound and in other tests an M-1 metabolite was the starting test compound.
Fresh rat whole blood was obtained from ViviSource Laboratories, Waltham, Mass. Stock solutions (7.5 millimolar (mM)) of test compounds were prepared in dimethyl sulfoxide (DMSO). The 7.5 mM stock solutions were diluted to 500 micromolar (μM) in acetonitrile (ACN). To 990 microliters (μL) of blood pre-warmed to 37° C. for 7 minutes was added 10 μl, of 500 μM test compound to a final concentration of 5 μM. The test compounds were pentoxifylline, (S)-M1 metabolite of pentoxifylline, (R)-M1 metabolite of pentoxifylline, Compound 409, Compound 435(S), and Compound 435(R). The latter two test compounds are deuterated (S)-M1 and (R)-M1 metabolites, respectively, of Compound 409. The reaction mixture was incubated at 37° C. Aliquots (50 μL) were removed at 0 min, 5 min, 15 min, 30 min, 1 hour and 2 hours following the addition of test compound and added to 96-well plates containing 150 μL of ice cold acetonitrile with an internal standard to stop the reaction. The plates were stored at −20° C. for 20 minutes after which 100 μL of 50% acetonitrile/water was added to the wells of the plate prior to centrifugation to pellet precipitated proteins. A 200-μL aliquot of each supernatant was transferred to another 96-well plate and analyzed by LC-MS/MS using an Applied Bio-systems API 4000 mass spectrometer for amounts of the administered compound and its specific metabolite listed in Table 11 below.
The results of this study are depicted in FIGS. 2 and 3.

[2] = parameters: species or system beagle dogs; settings: dog, in vivo, po
Description: Example 34a was repeated with additional monitoring of the pentoxifylline and Compound 409 metabolites. In this experiment Compound 409 and pentoxifylline were dissolved separately in saline to a concentration of 4.4 and 4 mg/mL respectively. A 1:1 (v/v) mixture of the two solutions was prepared to yield a solution having a final concentration of 2.2 mg/mL of Compound 409 and 2 mg/mL pentoxifylline. Post-dosing data analysis included adjustments to account for the 10% difference in dosing concentration between compound 409 and pentoxifylline.
Four beagle dogs (2-3 years of age, and weighed 5 to 8 kg) were fasted overnight and then orally dosed via gavage with 2.75 mg/kg Compound 409 and 2.5 mg/kg pentoxifylline using the mixture described above. Blood samples (approximately 1 mL) were collected via femoral vein at 0 min (pre-dose), 5 min, 15 min, 30 min, 45 min, 1 hr, 1.5 hr, 2 hr, 3 hr, 4 hr, and 6 hr post-dose. Blood was stored on ice prior to centrifugation to obtain plasma samples. Centrifugation took place within 15 minutes of blood collection to harvest plasma (maximum volume). The plasma was decanted immediately and frozen/stored at −20° C. until analysis.
Plasma samples were analyzed by LC-MS/MS for the presence of the administered compound and its corresponding M1 metabolite:
The results from one of the four dogs (Dog H, FIG. 1b) were inconsistent with that of the other three. […] It was concluded that this dog was most likely improperly gavaged and that the compounds were probably administered through the trachea, rather than into the GI tract as would have been desired. Accordingly, the data from this dog was excluded from the analyses.

[3] = parameters: species or system male beagle dogs; settings: male, beagle, dog, in vivo, po
Description: This study was similar to those described in Examples 34a and 34b, except that Compound 413 was evaluated. Four male beagle dogs were orally dosed by gavage with a mixture containing 2 mg/mL each of pentoxifylline and Compound 413 in saline. Blood samples were taken as in Example 34b.

[4] = in vivo; parameters: species or system male beagle dogs; settings: male, beagle, dog, po
Description: Metabolism of the title compounds were studied following oral administration to male beagle dogs. Blood samples were removed from dosed dogs at various time points and plasma isolated therefrom. The plasma samples were used for the determination of plasma drug levels by LC-MS/MS (liquid chromatography with tandem mass spectrometry) for estimating pharmacokinetic parameters.
Compound 409 and pentoxifylline were dissolved separately in saline to a concentration of 4 mg/mL. A 1:1 (v/v) mixture of the two solutions was prepared to yield a solution having a final concentration of 2 mg/mL of both Compound 409 and pentoxifylline.
Two male beagle dogs were fasted overnight and then orally dosed via gavage with 2.5 mg/kg of Compound 409 and pentoxifylline using the mixture described above. Blood samples (1.5-2 mL) were collected via the femoral vein at 0 min (pre-dose), 15 min, 30 min, 45 min, 1 hr, 1.5 hr, 2 hr, 3 hr, 4 hr, 6 hr, 8 hr, 10 hr, 12 hr, 16 hr and 24 hr post-dose. Blood was stored on ice prior to centrifugation to obtain plasma samples. Centrifugation took place within 1 hour of blood collection to harvest plasma (maximum volume). The plasma was decanted immediately and frozen/stored at −70° C. until analysis.

[5] = Compound stability in human liver microsomes (Example 36); assay type: in vitro ADME; settings: human liver microsomes 2.0 mg/mL, 5 μM, NADPH, 30 minutes, FIG. 5 columns A and B
Description: Example 36 is similar to Example 35 in design, except that human liver microsomes were used instead of rat whole blood to study the metabolism of the compounds.
Human liver microsomes (20 mg/mL) were obtained from Xenotech, LLC (Lenexa, Kans.). β-nicotinamide adenine dinucleotide phosphate, reduced form (NADPH), magnesium chloride (MgCl2), and dimethyl sulfoxide (DMSO) were purchased from Sigma-Aldrich.
Stock solutions containing 7.5 mM of test compounds (pentoxifylline, (S)-M1 metabolite, (R)-M1 metabolite, Compound 409, Compound 435(S), and Compound 435(R)) were prepared in DMSO. The 7.5-mM stock solutions were diluted to 250 μM in acetonitrile (ACN). The human liver microsomes were diluted to 2.5 mg/mL in 0.1 M potassium phosphate buffer, pH 7.4, containing 3 mM MgCl2. The diluted microsomes were added to wells of a 96-well deep-well polypropylene plate in triplicate. 10 μL of the 250 μM test compound was added to the microsomes and the mixture was pre-warmed to 37° C. for 10 minutes. Reactions were initiated by addition of pre-warmed NADPH solution. The final reaction volume was 0.5 mL and contained 2.0 mg/mL human liver microsomes, 5 μM test compound, and 2 mM NADPH in 0.1M potassium phosphate buffer, pH 7.4, and 3 mM MgCl2. The reaction mixtures were incubated at 37° C., and 50-μL aliquots were removed at 0, 5, 10, 20, and 30 minutes and added to shallow-well 96-well plates which contained 50 μL of ice-cold acetonitrile with internal standard to stop the reactions. The plates were stored at 4° C. for 20 minutes after which 100 μL of water was added to the wells of the plate before centrifugation to pellet precipitated proteins. Supernatants were transferred to another 96-well plate and analyzed for the amount of the administered compound and its specific metabolite (listed in Table 11 above) by LC-MS/MS using an Applied Bio-systems API 4000 mass spectrometer.
The results of this study are depicted in FIGS. 4 and 5. […]

SMILES: [2H]c1nc2c(c(=O)n(CCCC([2H])([2H])[C@]([2H])(O)C([2H])([2H])[2H])c(=O)n2C)n1C([2H])([2H])[2H] [Compound 435(R), (R)-8-d1-1-(4,4,5,6,6,6-d6-5-Hydroxyhexyl)-3-methyl-7-(methyl-d3)-1H-purine-2,6(3H,7H)-dione]
Keto-compound (pentoxifylline or Compound 409) formed from M-1 alcohol [1]: not detected

SMILES: C[C@@H](O)CCCCn1c(=O)c2c(ncn2C)n(C)c1=O [(R)-M1, reference compound]
Keto-compound (pentoxifylline or Compound 409) formed from M-1 alcohol [1]: No metabolism of (R)-M1 to pentoxifylline was detected

SMILES: [2H]c1nc2c(c(=O)n(CCCC([2H])([2H])C(O)C([2H])([2H])[2H])c(=O)n2C)n1C([2H])([2H])[2H] (racemic) [Compound 419, (±)-8-d1-1-(4,4,6,6,6-d5-5-Hydroxyhexyl)-3-methyl-7-(methyl-d3)-1H-purine-2,6(3H,7H)-dione]
Overall systemic exposure to M1 metabolite compared to M1 following dosing of pentoxifylline [2]: greater

% Difference in Ave. AUC (deuterated vs nondeuterated species) [3]: +74% | % Difference in Ave. Cmax (deuterated vs nondeuterated species) [3]: +47%
SMILES: [2H]c1nc2c(c(=O)n(CCCC([2H])([2H])C(=O)C([2H])([2H])[2H])c(=O)n2C([2H])([2H])[2H])n1C([2H])([2H])[2H] [Compound 413, 8-d1-3,7-Di(methyl-d3)-1-(4,4,6,6,6-d5-5-oxohexyl)-1H-purine-2,6(3H,7H)-dione]

% Difference in Ave. AUC (deuterated vs nondeuterated species) [4]: +80% | % Difference in Ave. Cmax (deuterated vs nondeuterated species) [4]: +57% | AUC ([4]; 2.5 mg/kg): 811 ng·h/mL | Cmax ([4]; 2.5 mg/kg): 1230 ng/mL | % Difference in Ave. AUC (deuterated vs nondeuterated species) ([2]; beagle): +97% | % Difference in Ave. Cmax (deuterated vs nondeuterated species) ([2]; beagle): +80%
SMILES: [2H]c1nc2c(c(=O)n(CCCC([2H])([2H])C(=O)C([2H])([2H])[2H])c(=O)n2C)n1C([2H])([2H])[2H] [Compound 409, 8-d1-3-methyl-7-(methyl-d3)-1-(6-d3-4-d2-5-oxohexyl)-1H-purine-2,6(3H,7H)-dione]
Amount of (S)-M1 type metabolite (Compound 419(S)) formed from keto-compound, compared to (S)-M1 formed from pentoxifylline ([1]; approximately 2 hours, FIG. 3 columns A and B): similar | Amount of (S)-M1 type metabolite (Compound 419(S)) formed from keto-compound, compared to (S)-M1 formed from pentoxifylline [5]: similar | Clearance from the plasma compared to pentoxifylline [2]: more slowly cleared
